Reference: PMC9369794 (Molecules, 2022)

How the values were obtained:
[1] = FRAP assay for the antioxidant capacity; set-up: key to FRAP: slope of concentration-absorbance line divided by Trolox slope; settings: stock in THF, acetate buffer pH 3.0, 37 °C, 15 min; ratio of slopes to trolox (melatonin in EtOH)
Procedure: In the FRAP method the antioxidant reduces Fe^3+ to Fe^2+ in an acidic medium. These experiments were performed in an acetate buffer of pH 3.0, the stock solutions of the examined antioxidants were prepared in THF. The antioxidant capacities were compared to that of Trolox as a standard, just like in the ABTS assays.
A modified literature process was used. The FRAP reagent should also be prepared freshly each day. 2,4,6-Tris(2-pyridyl)-s-triazin (TPTZ) was dissolved in a 200 mM HCl solution and diluted with water to get a final 40 mM HCl and 10 mM TPTZ concentration. For the preparation of the FRAP reagent 30 mL of 20 mM FeCl3 solution and 30 mL of 10 mM TPTZ solution were mixed, and 300 mL of 300 mM acetate buffer with pH 3.0 was added (a pH lower than usual was used to avoid the precipitation of the TPTZ). The FRAP reagent was incubated at 37 °C for 15 min. 150 μL of antioxidant dissolved in THF was mixed with 2.85 mL FRAP reagent solution, and incubated at 37 °C for 15 min in dark. Measurements were carried out at each antioxidant concentration (0, 7.5; 10; 12.5; 15; 17.5 μM final concentration) in triplicate. In the 0 μM solution the antioxidant solution was substituted with acetate buffer (pH 3.0). The FRAP was determined at 600 nm: the absorbance values were plotted as a function of concentration of the sample compounds and that of Trolox for the standard reference data. The FRAP values were calculated as in the ABTS assays, i.e., the slope of the concentration-absorbance lines for the carotenoid derivatives was divided by that for the trolox.

[2] = Study of aggregation by UV-Vis spectrophotometry; assay type: physicochemical; settings: for type of aggregates formed: from THF:aqueous solutions; for change of UV spectrum with increasing ratio of PBS: starting from THF solutions
Source text: It has been known for a long while that carotenoids or their derivatives can be prone to supramolecular organization in water or water-organic solvent mixtures. This behaviour is especially interesting because this higher organization can modulate or alter biological properties of carotenoids, as well [40]. A tendency to form supramolecular structures can be tested by recording the UV spectra in an organic solvent and increasing the ratio of water in the sample. […] We have some recent experience of such behaviour of carotenoid-flavonoid conjugates.
All of our adducts were tested with the method above using tetrahydrofurane (THF) or dimethylsulfoxide (DMSO) with increasing ratio of phosphate-buffered saline (PBS), which was the medium of the antioxidant measurements. […]
1. Study of Aggregation by UV-Vis Spectrophotometry
Starting from THF solutions: each conjugate was dissolved in freshly distilled THF and the solutions were diluted
either with THF or THF-PBS mixtures to obain final solutions of identical carotenoid concentration. […]
Figure S1. UV-spectra of 8’-apo-β-carotenol succinate ( 6) ( a) in THF and in THF-PBS mixtures ( 1:1 , 1:3); (b) in DMSO
Figure S2. UV-spectra of zeaxanthin bissuccinate ( 7) ( a) in THF and in THF-PBS mixtures ( 1:1 , 1:3); (b) in DMSO and
Figure S3. UV-spectra of zeaxanthin monosuccinate ( 11) ( a) in THF and in THF-PBS mixtures ( 1:1 , 1:3); (b) in DMSO […]

[3] = TEAC assay using ABTS radical; settings: 6 min, ratio of slopes to trolox (melatonin dissolved in EtOH); for TEAC from DMSO: stock in DMSO diluted with PBS pH 7.4, 37 °C; for TEAC from THF: stock in THF diluted with PBS pH 7.4, 37 °C
Procedure: This method uses a redox reaction between ABTS^•+ radical cation and the examined antioxidants, which act as the reducing agents. […] As the carotenoids and the conjugates are poorly soluble in water, they were dissolved first either in small amounts of freshly distilled tetrahydrofuran (THF) or in dimethylsulfoxide (DMSO), and these stock solutions were diluted with phosphate-buffered saline (PBS) to the final nominal concentration.
The TEAC values were determined in isotonic phosphate buffer of pH 7.4. The buffer solution was made by dissolving 9.55 g of DPBS powder in distilled water to form 1L of solution (composition: 0.138 M NaCl, 0.0027 M KCl, 0.0081 M Na2HPO4, 0.0015 M KH2PO4). The assay was performed according to a literature process with slight modifications. The ABTS^•+ radical cation was produced by reacting 7 mM 2,2′-azino-bis(3-ethylbenzothiazoline-6-sulfonic acid) and 2.45 mM potassium persulfate in water. The stock ABTS^•+ solution was prepared 12–16 h before the experiments, and stored at room temperature in dark. The absorbance of the ABTS^•+ solution was set to 0.70 ± 0.05 at 734 nm by a ca. 100-fold dilution with phosphate-buffered saline (PBS). […] The stock solutions were diluted with PBS such that equal amounts of the diluted solutions were added to the ABTS^•+ reagent to obtain final antioxidants concentrations of 0.3125, 0.625, 1.25, 2.50, 3.75, 5 μM, respectively. In the blank (0 μM), the solutions of the antioxidants were substituted with THF or DMSO.
The antioxidants were incubated with ABTS^•+ solution at 37 °C for 6 min. During the reaction of ABTS^•+ with the antioxidants the absorbance of the solution decreases. The percentage inhibition of absorbance at 734 nm was calculated as (A0 − Aantioxidant)/A0, where A0 is the absorbance of the ABTS^•+ solution and Aantioxidant is the absorbance measured after the addition of the antioxidant. The determinations were carried out at each concentration in triplicate. The calculated values were plotted against the final concentration of the antioxidants. The slopes of the curves were compared with that for trolox, the TEAC value is the ratio of the slopes for the antioxidant and for trolox.

[4] = Hydrodynamic diameter and colloidal stability of aggregates by dynamic light scattering; assay type: physicochemical; settings: for mean size (hydrodynamic diameter) / zeta potential: 37 °C; for PDI: sd^2/mean size^2
Procedure: In contrary, all spectra gave a hypsochromic shift and loss of fine-structure when the DMSO solutions were diluted with PBS, which refers to the formation of H-type (card-pack) aggregates (Figures S1–S12). Since DMSO-containing aqueous systems are more suitable for biological studies, we examined these solution by dynamic light scattering (DLS) spectroscopy to gain more information about the particles. The concentrations of the examined solutions were the same as used in the ABTS/TEAC measurements (0.3125–5.00 μM, see next section).
Size determination of aggregates and the colloidal stability of the sample dispersions were determined by dynamic light scattering measurements, where the hydrodynamic diameter of particles, and zeta potential values were collected. The number-weighted size distribution indicated one main peak in each case, the polydispersity index (PDI) was calculated as sd^2/mean size^2. For the particle size analysis Malvern Zetasizer Nano S instrument and for the zeta potential determination Malvern Zetasizer Nano Z instrument were used (Malvern Panalytical Ltd., Great Malvern, Worcestershire, UK). The measurements were carried out in autocorrelation mode, and the following parameters were kept constant: scattering angle 173°, attenuator 11 and its factor 0.0146, measurement position 4.65 mm. The concentrations of sample dispersions were between 0.3125 and 5 µM. The dispersion medium was PBS. Each samples was examined after 6 min incubation period at 37 °C.

[5] = 0.3125 μM in PBS from DMSO stock
[6] = 0.625 μM in PBS from DMSO stock

In the case of `COc1ccc2[nH]cc(CCNC(=O)CNC(=O)CCC(=O)O[C@@H]3CC(C)=C(/C=C/C(C)=C/C=C/C(C)=C/C=C/C=C(C)/C=C/C=C(C)/C=C/C4C(C)=C[C@@H](OC(=O)CCC(=O)NCC(=O)NCCc5c[nH]c6ccc(OC)cc56)CC4(C)C)C(C)(C)C3)c2c1` (stereo partly shown) [Compound 16, Lutein-bismelatonin conjugate], the melting point is reported as 123 to 124 °C, the FRAP [1] is reported as 0.460 and the “type of aggregates formed” value [2] is reported as “J-type (head-to-tail) aggregates”. For the same compound, the “change of UV spectrum with increasing ratio of PBS” value [2] was “bathochromic shift”, the “TEAC from DMSO” value [3] was 2.40 and the “TEAC from THF” value [3] was 2.933. The “mean size (hydrodynamic diameter)” value [4, 5] was 131.20 nm, the zeta potential [4, 5] was −12.2 mV and the PDI ([4]; 0.3125 μM in PBS) was 0.2022. For the same compound, the “mean size (hydrodynamic diameter)” value [4, 6] was 51.10 nm, the zeta potential [4, 6] was −11.7 mV and the PDI ([4]; 0.625 μM in PBS) was 0.0673. For the same compound, the “mean size (hydrodynamic diameter)” value ([4]; 1.25 μM in PBS from DMSO stock) was 142.50 nm, the zeta potential ([4]; 1.25 μM in PBS from DMSO stock) was −12.5 mV and the PDI ([4]; 1.25 μM in PBS) was 0.0108. For the same compound, the “mean size (hydrodynamic diameter)” value ([4]; 2.5 μM in PBS from DMSO stock) was 91.19 nm, the zeta potential ([4]; 2.5 μM in PBS from DMSO stock) was −27.5 mV and the PDI ([4]; 2.5 μM in PBS) was 0.1585. For the same compound, the “mean size (hydrodynamic diameter)” value ([4]; 3.75 μM in PBS from DMSO stock) was 39.28 nm, the zeta potential ([4]; 3.75 μM in PBS from DMSO stock) was −1.4 mV and the PDI ([4]; 3.75 μM in PBS) was 0.1229. The “mean size (hydrodynamic diameter)” value ([4]; 5 μM in PBS from DMSO stock) was 43.14 nm, the zeta potential ([4]; 5 μM in PBS from DMSO stock) was −0.5 mV and the PDI ([4]; 5 μM in PBS) was 0.0264.
In the case of `COc1ccc2[nH]cc(CCNC(=O)CNC(=O)CCC(=O)O[C@@H]3CC(C)=C(/C=C/C(C)=C/C=C/C(C)=C/C=C/C=C(C)/C=C/C=C(C)/C=C/C4=C(C)C[C@@H](O)CC4(C)C)C(C)(C)C3)c2c1` [Compound 13, Zeaxanthin-monomelatonin conjugate], the melting point is reported as 156 to 157 °C, the FRAP [1] is reported as 0.152 and the “type of aggregates formed” value [2] is reported as “J-type (head-to-tail) aggregates”. For the same compound, the “change of UV spectrum with increasing ratio of PBS” value [2] was “bathochromic shift”, the “TEAC from DMSO” value [3] was 1.34 and the “TEAC from THF” value [3] was 1.434. The “mean size (hydrodynamic diameter)” value [4, 5] was 388.20 nm, the zeta potential [4, 5] was 16.0 mV and the PDI ([4]; 0.3125 μM in PBS) was 0.0336. For the same compound, the “mean size (hydrodynamic diameter)” value [4, 6] was 551.20 nm, the zeta potential [4, 6] was 15.4 mV and the PDI ([4]; 0.625 μM in PBS) was 0.0410. The “mean size (hydrodynamic diameter)” value ([4]; 1.25 μM in PBS from DMSO stock) was 364.50 nm, the zeta potential ([4]; 1.25 μM in PBS from DMSO stock) was 2.2 mV and the PDI ([4]; 1.25 μM in PBS) was 0.0270. For the same compound, the “mean size (hydrodynamic diameter)” value ([4]; 2.5 μM in PBS from DMSO stock) was 638.90 nm, the zeta potential ([4]; 2.5 μM in PBS from DMSO stock) was 2.2 mV and the PDI ([4]; 2.5 μM in PBS) was 0.0217. The “mean size (hydrodynamic diameter)” value ([4]; 3.75 μM in PBS from DMSO stock) was 79.01 nm, the zeta potential ([4]; 3.75 μM in PBS from DMSO stock) was 0.7 mV and the PDI ([4]; 3.75 μM in PBS) was 0.0112. The “mean size (hydrodynamic diameter)” value ([4]; 5 μM in PBS from DMSO stock) was 565.30 nm, the zeta potential ([4]; 5 μM in PBS from DMSO stock) was 1.1 mV and the PDI ([4]; 5 μM in PBS) was 0.0311. The “hydrodynamic diameter of the aggregates” value ([4]; over the concentrations 0.3125–5.00 μM) was 400–600 nm.
